From patent US20260191786A1, “SOLID DOSAGE FORMS WITH HIGH ACTIVE AGENT LOADING” (Lonza Sales AG, priority 2018, published 2026)
≈ marks a conversion by molar mass, not a printed value. Where two headings read alike, the source gives them in different places.

Legend:
Type in all cases: physicochemical
[1] = Log P of the active agent
Description: Log P: The Log P value of an active agent is defined as the base 10 logarithm of the ratio of (1) the active agent concentration in an octanol phase to (2) the active agent concentration in a water phase when the two phases are in equilibrium with each other, is a widely accepted measure of lipophilicity. The Log P value may be measured experimentally or calculated using methods known in the art. The Log P value may be estimated experimentally by determining the ratio of the drug solubility in octanol to the drug solubility in water. When using a calculated value for the Log P value, the highest value calculated using any generally accepted method for calculating Log P is used.

[2] = pKa (base) of the active agent
[3] = Crystalline and amorphous solubility of the active agent in SIF / gastric buffer

| Compound | Log P [1] | pKa (base) [2] | pKa [2] | solubility ([3]; 0.5% SIF (simulated intestinal fluid), fassgf or other biorelevant, amorphous, 0.5% SIF, read-out: amorphous solubility in 0.5% SIF) [µg/mL] | solubility ([3]; gastric buffer (GB), simulated gastric fluid, thermodynamic from solid, crystalline, gastric buffer, read-out: crystalline solubility in gastric buffer (GB)) [µg/mL] |
| --- | --- | --- | --- | --- | --- |
| Posaconazole | 4.5 | 4.5 |  |  |  |
| C#Cc1cccc(Nc2ncnc3cc(OCCOC)c(OCCOC)cc23)c1 [Erlotinib] | 2.8 |  | 5.3 | ~380 (≈ 966 µM) | 182 (≈ 463 µM) |
